Entries after “also recorded” stand apart in the source; their conditions may differ.
Assays:
[1] = tested on: α-smooth muscle actin (α-SMA); assay: α-smooth muscle actin protein expression, Western blot; assay type: cell-based, human; conditions: TGFβ-treated A549 cells, 5 μM, 24 h
Protocol: Data are expressed as means ± SEM of fold increment compared to untreated cells normalized to α-tubulin.
Western blot analysis was performed on whole-cell lysates of A549 cells, exposed for 48 h to TGFβ treatment and subsequently exposed to 5 µM concentrations of different compounds. After 24 h incubation, media were rapidly removed and cell monolayers were lysed as previously described in RIPA lysis buffer, with the addition of proteinase inhibitor cocktail (04693124001 Roche Merk Life Science S.r.l., Milano, Italy) for 30 min in ice [35]. Protein content was quantified, and forty-fifty micrograms of total proteins were separated on Bolt® Bis-Tris Plus gels 4–12% (Life Technologies, Monza, Italy). Fractionated proteins were transferred from the gel to a PVDF nitrocellulose membrane using iBlot 2 system (Life Technologies, Monza, Italy). Membranes were blocked for 5 min at room temperature, with EveryBlot Biorad blocking buffer (Life Technologies, Monza, Italy). […] The protein bands were analyzed by the Odyssey Infrared Imaging System (Lycor Bioscience) using software for protein quantification. […]

E-cadherin = E-cadherin expression, Western blot; assay type: cell-based, human; conditions: TGFβ-treated A549 cells, 5 μM, 24 h
Protocol: Left panel, representative Western blot of E-cadherin protein expression.
Western blot analysis was performed on whole-cell lysates of A549 cells, exposed for 48 h to TGFβ treatment and subsequently exposed to 5 µM concentrations of different compounds. After 24 h incubation, media were rapidly removed and cell monolayers were lysed as previously described in RIPA lysis buffer, with the addition of proteinase inhibitor cocktail (04693124001 Roche Merk Life Science S.r.l., Milano, Italy) for 30 min in ice [35]. Protein content was quantified, and forty-fifty micrograms of total proteins were separated on Bolt® Bis-Tris Plus gels 4–12% (Life Technologies, Monza, Italy). Fractionated proteins were transferred from the gel to a PVDF nitrocellulose membrane using iBlot 2 system (Life Technologies, Monza, Italy). Membranes were blocked for 5 min at room temperature, with EveryBlot Biorad blocking buffer (Life Technologies, Monza, Italy). Subsequently, the membranes were probed at 4 °C overnight with appropriate primary antibodies diluted in a solution of 1:1 Odyssey blocking buffer/T-PBS buffer, washed four times with PBS-Tween 0.1% solution, and probed with the secondary IRDye antibodies according to manufacturering instructions. The protein bands were analyzed by the Odyssey Infrared Imaging System (Lycor Bioscience) using software for protein quantification. […]

TGFβ-treated A549 cells [2] = assay: F-actin cytoskeleton by confocal analysis (rhodamine-phalloidin); assay type: cell-based, human; conditions: 5 μM, 24 h
Protocol: After incubation, cells were fixed and processed for fluorescence confocal imaging. The cell cytoskeleton was stained with rhodamine-conjugated phalloidin. Image dimensions: 180 × 180 μm, scale bar 50 μm. Experiments were performed at least three times. (C) Quantification of disassembled cytoskeleton expressed as the percentage of cells with point-like fluorescence signals/total cells per field. Data are representative of three independent experiments. * p < 0.05, and ** p < 0.001 vs. TGFβ treated cells.
A549 cells, exposed for 48 h to TGFβ treatment, were grown on fibronectin-coated (10 µg/mL) (sc-29011 SantaCruz, D.B.A., Milano Italy) glass coverslips in 6-well plates for 2 h, after which adherent cells were exposed to the different treatments, in the absence of FCS, for 24h. After incubation, the culture medium was removed, cells were washed with PBS, and fixed 30 min at 4 °C with 3.7% paraformaldehyde. Cells were permeabilized for 15 min with PBS 0.1% Tryton X-100 at room temperature, and then incubated 1 h at room temperature with blocking buffer (0.1% Tryton X-100 and 5.5% horse serum PBS). […] A single composite image was obtained by superimposition of 20 optical sections for each sample analyzed.

TGFβ-treated A549 cells [3] = assay: Clonogenic assay; assay type: cell-based, human; conditions: sorted fluorescence-positive TGFβ-treated A549 cells after 5 μM 24 h; 2 weeks growth
Protocol: (A) After incubation, cells were sorted (BDMelody) and isolated cells from the selected population (indicated as P4) were seeded at low density (1000 cells/6 well petri dishes). (B) Number of colonies obtained after 2 weeks growth in standard media. (C) Quantification of colonies.
A549 lung adenocarcinoma cells were grown in the presence of TGFβ for 48 h. […] At the end of the incubation, cells were sorted using a fluorescence activated cell sorter (Melody, Becton Dickinson, Bioscience, Eysins, Switzerland). […] Activation of the labelled cells was provided by the violet laser (ex = 405 nm) while sorting of the activated cells was performed by their emitted wavelength at 480 nm (detection filter 450/50, using the BV480 channel). Isolated cells (1 × 10^3) were seeded in a FN-coated 6 well dishes. These isolated cells were cultured for 2 weeks. The medium was changed every 4 days until the emergence of colonies. The colonies were fixed and stained with Diff-Quick solution.

K562 cells = assay: Cell internalization by flow cytometry, αvβ6-negative K562; assay type: cell-based, human; conditions: 5 µM
Text: In these cells, 74% of cells were positive after exposure to compound 1, whilst after exposure to compounds 2 and 3, positive cells ranged between 43.8 and 49% (Figure 4A). […] In addition, we investigated the internalization in αvβ6-negative K562 cells. […] Finally, two other αvβ6 integrin-expressing cell lines were used to evaluate the internalization of these compounds, namely the human melanoma cells SSM2c (Figure S4B) and the L929 murine fibroblasts (Figure S5B).
Briefly, A549 cells were seeded in standard medium (2 × 10^6 cells/100 mm Petri dishes, Sarstedt), and after adhesion, cells were grown in the presence or in the absence of TGFβ (10 ng/mL) for 48 h. […] After 24 h, cells were gently detached using Accutase (ECB3056D, Euroclone, Pero, Milano, Italy) or trypsin and the fluorescence, associated with different cell populations, was evaluated using the BV480 channel of the FACSCanto BD instrument (using 405 nm laser). Untreated cells were used as the negative control. The same procedure was applied to evaluate the internalization in K562, SSM2c, and L929 cells.
3. Expression of αvβ6 integrin receptor in K562 human erythroleukemic cells and internalization of conjugated compounds or nintedanib
Figure S3. Expression of αvβ6 integrin receptor in K562 human erythroleukemia cells (A). […]
assessed by flow cytometry measurements at 5 µM concentration. […]
as assessed by flow cytometry. […]

TGFβ-treated A549 cells [4] = assay: Invasion assay through fibronectin-coated filters; assay type: cell-based; conditions: Homo sapiens, 24 h, read-out: migration inhibition (invasiveness) with respect to control
Protocol: The first assay envisaged the evaluation of cellular invasiveness of TGFβ-treated A549 cells by measuring the capacity of cells to migrate through fibronectin-coated filters.
Cells were allowed to migrate towards fibronectin-coated filters (10 μg/μL). Right panel, quantification of invasiveness. Data are percentages of migrated cells compared to untreated cells and expressed as mean value ± SEM of at least three independent experiments. * p < 0.05 and ** p < 0.001 vs. untreated cells. […] Experiments were performed at least three times.
Invasiveness of A549 cells was determined in vitro on fibronectin-precoated polycarbonate inserts (Sarstedt 83.3932.800, 8µm pore size, 0.3 cm^2 growth surface). Briefly, 50 µL of 10 μg/mL of fibronectin solution were seeded on each insert and allowed to dry in sterile conditions (1.6 µg/cm^2). A549 human lung carcinoma cells were grown in the presence of TGFβ for 48 h. After incubation, 3.5 × 10^4 cells were exposed to the different compounds, in serum-free medium (at 5 µM concentration), seeded in the upper compartment of the insert, and were free to perform in the absence of any chemoattractant. Inserts were incubated for 24 h at 37 °C in 10% CO2 in air. […] Photographs of randomly chosen fields were taken, and migrated cells were counted in 4 field/photograph.

[5] = tested on: tumor spheroids of TGFβ-treated A549 cells and murine L929 fibroblasts; assay: Inhibition of 3D tumor spheroid growth; assay type: cell-based, human; conditions: 5 µM, 72 h, vs untreated spheroids
Protocol: Heterogeneous spheroids of tumor cells and fibroblasts were generated using the hanging drop technique to mimic the complex three-dimensional environment of tumor tissues. […] Next, the fluorescence intensities associated with each cell population were analyzed as previously described.
Hanging drop tumor spheroids were prepared starting from 1:1 mixed cell population (1000 cells/25μL) of TGF𝛽-treated A549 cells and murine L929 fibroblasts. […] (C) Quantitative analysis of inhibition of 3D growth and (D) 3D spheroid internalization of the compounds after 72 h exposure. Data are representative of three independent experiments (n = 6) and expressed as means ± SEM. * p < 0.05 vs. untreated spheroids.
A549 cells, exposed for 48 h to TGFβ treatment, were mixed in a 1:1 ratio with murine L929 fibroblast (40,000/mL) in order to obtain 3D multicellular tumor spheroids (MCTS) resembling cellular heterogenicity of the neoplastic lesion. […] After one week, multicellular tumor spheroids were completely formed. Tumor spheroids were next used in different experimental procedures. […] For 3D growth inhibition, spheroids were placed on 2% agarose coated dishes in complete medium containing the different treatments at 5 µM concentration. Spheroid areas were analysed and compared to time 0 and used to evaluate the inhibition of 3D growth (yellow lines). Images of all spheroids were taken daily using the EVOS XL Core Imaging System with a 10x objective (Thermofisher Scientific, Waltham, MA, USA ). All images were analysed using the open-source software ImageJ (1.52a, National Institutes of Health, Bethesda, MD, USA).

[6] = tested on: tumor spheroids of TGFβ-treated A549 cells and murine L929 fibroblasts; assay: Tumor spheroid 2D flat surface migration and growth; assay type: cell-based, human; conditions: 5 µM, fibronectin-coated flat surface
Protocol: Heterogeneous spheroids of tumor cells and fibroblasts were also used to evaluate the ability of the compounds to inhibit 2D flat surface migration and growth once the spheroids were allowed to attach to a suitable surface (Figure 8).
Hanging drop tumor spheroids were allowed to spread on a 2D fibronectin-coated flat surface. […] Data are representative of three independent experiments (n = 6) and expressed as means ± SEM. * p < 0.05 vs. untreated spheroids.
A549 cells, exposed for 48 h to TGFβ treatment, were mixed in a 1:1 ratio with murine L929 fibroblast (40,000/mL) in order to obtain 3D multicellular tumor spheroids (MCTS) resembling cellular heterogenicity of the neoplastic lesion. […] After one week, multicellular tumor spheroids were completely formed. Tumor spheroids were next used in different experimental procedures. We evaluated 2D flat surface inhibition of migration and growth, and the inhibition of 3D growth. For 2D flat surface migration and growth inhibition assays, the spheroids were placed on regular culture dishes and allowed to spread and grow in complete medium containing different compounds at 5 µM concentration. The areas of cell spreading were used as parameters for migration (red lines), while the areas of the spheroid core were used as parameters for 2D growth (yellow lines). For 3D growth inhibition, spheroids were placed on 2% agarose coated dishes in complete medium containing the different treatments at 5 µM concentration. Spheroid areas were analysed and compared to time 0 and used to evaluate the inhibition of 3D growth (yellow lines). Images of all spheroids were taken daily using the EVOS XL Core Imaging System with a 10x objective (Thermofisher Scientific, Waltham, MA, USA ). All images were analysed using the open-source software ImageJ (1.52a, National Institutes of Health, Bethesda, MD, USA).

TGFβ-treated A549 cells [7] = assay: cells; assay type: cell-based, human
Protocol: A549 cell viability was assessed using MTT (3-(4,5-dimethylthiazol-2-yl)-2,5-diphenyltetrazolium bromide) tetrazolium reduction assay (M5655, Sigma Aldrich, Milan, Italy), as described in [58]. Briefly, A549 cells were treated for 48 h in complete medium with TGFβ (10 ng/mL). Next, cells (2.5 × 10^3) were plated into 96-multiwell plates in 100 µL of complete medium. After adhesion, the compounds were added to the medium at different concentrations. After 24 h exposure, the medium was replaced with 100 µL MTT reagent in each well, and plates were incubated at 37 °C. After 2 h, MTT was removed, and the blue MTT–formazan product was solubilized with dimethyl sulfoxide (DMSO, Sigma Aldrich). The absorbance of the formazan solution was read at 595 nm using the microplate reader (Bio-Rad, Milan, Italy). Inhibition of cell proliferation was calculated by the IC50 calculator (AAT Bioquest, Inc., Pleasanton, CA, USA, https://www.aatbio.com/ (accessed on 1 July 2022)).

SMILES: COC(=O)c1ccc2c(c1)NC(=O)/C2=C(\Nc1ccc(N(C)C(=O)CN2CCN(C)CC2)cc1)c1ccccc1 [nintedanib, Nintedanib]
- α-SMA protein expression [1]: reduced by half
- E-cadherin expression (E-cadherin): enhanced
- F-actin bundle disassembly (TGFβ-treated A549 cells [2]): more significant reduction in the assembly of F-actin filaments
- reduction of colony formation compared to untreated cells (TGFβ-treated A549 cells [3]): 50%
- fluorescence-positive cells (compound internalization) (K562 cells): 95–100%
- inhibition at 5 µM (TGFβ-treated A549 cells [4]): 80%
- inhibition of 3D spheroid growth [5]: inhibited significantly
- 2D flat surface migration of tumor spheroids [6]: significantly impaired; also recorded: strong inhibition
- 2D growth of tumor spheroids (spheroid core) [6]: significantly impaired
- inhibition of cell proliferation (in words) (TGFβ-treated A549 cells [7]; 0.5-50 μM, 24 h (Figure S8)): concentration-dependent inhibition
- IC50 (TGFβ-treated A549 cells [7]; Homo sapiens, A549, 24 h, read-out: IC50, inhibition of cell proliferation (MTT)): 7.5 µM
- inhibition of cell proliferation (in words) (TGFβ-treated A549 cells [7]; TGFβ-treated A549 cells, concentrations >10 μM): almost completely inhibited

From publication PMC9861180, “Nintedanib-αVβ6 Integrin Ligand Conjugates Reduce TGFβ-Induced EMT in Human Non-Small Cell Lung Cancer” (International Journal of Molecular Sciences, 2023)
